The results in this text go back to article PMC7307922 (Journal of Medicinal Chemistry, 2020).

Values after ≈ are worked out from the molar mass of the structure shown. Values joined by “and” are separate entries in the source; they are usually repeats but may differ in a detail not shown here. Equal values may be shown once. Read-outs that look alike come from different tables or passages of the source.

Data set [1] deals with T1, hFFA3 (Homo sapiens, UniProt O14843).
T1 sequence (O14843 1-346): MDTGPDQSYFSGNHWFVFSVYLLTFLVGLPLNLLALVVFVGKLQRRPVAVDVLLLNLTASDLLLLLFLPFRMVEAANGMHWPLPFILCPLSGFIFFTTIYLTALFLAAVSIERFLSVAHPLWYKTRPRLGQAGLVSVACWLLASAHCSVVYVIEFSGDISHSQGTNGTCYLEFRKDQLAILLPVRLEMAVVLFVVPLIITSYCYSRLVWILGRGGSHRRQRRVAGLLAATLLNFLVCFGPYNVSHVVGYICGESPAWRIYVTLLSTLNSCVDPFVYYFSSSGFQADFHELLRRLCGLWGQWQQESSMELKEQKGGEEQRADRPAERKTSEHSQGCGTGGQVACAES
In words: biochemical. To be noted: for GTPγS pEC50: hFFA3, mean of ≥3 independent experiments ± standard error; for Emax: read-out: GTPγS Emax. Here is the method:
(§1) The ligands were initially screened in a human FFA3-dependent [^35S]GTPγS binding assay as this assay reflects receptor-mediated activation of Gi/o proteins and is known to generally correlate well with ligand affinity.[30] Analogues of particular interest were tested further in a cAMP inhibition assay as this is an important downstream effect of Gi-activation. […] It is furthermore performed in whole cells, is more downstream, includes G protein signal amplification, and therefore better reflects a more natural ligand–receptor response.
Membranes were isolated from Flp-In T-REx HEK293 cells treated with 100 ng/mL doxycycline to induce receptor expression. Cells were washed with ice-cold phosphate-buffered saline and removed from dishes by scraping before being centrifuged for 5 min at 4 °C, 3000 rpm. Pellets were resuspended in TE buffer (75 mM Tris–HCl, 5 mM EDTA; pH 7.5) with the addition of a protease inhibitor mixture (Roche Applied Science, West Sussex, UK). This was then homogenized with a 5 mL hand-held homogenizer and subsequently centrifuged at 1500 rpm for 5 min at 4 °C, from which the supernatant was collected and further centrifuged at 50 000 rpm for 30 min at 4 °C. The resulting pellet was resuspended in TE buffer, and the protein content was measured using a BCA protein assay kit (Pierce, Fisher Scientific, Loughborough, UK).
Reactions were initiated with the addition of [^35S]GTPγS at 50 nCi per tube; reactions were terminated after 1 h of incubation at 25 °C by rapid filtration through GF/C glass filters using a 24-well Brandel cell harvester (Alpha Biotech, Glasgow, UK). Unbound radioligand was removed from filters by washing three times with ice-cold wash buffer (50 mM Tris–HCl, pH 7.4, and 10 mM MgCl2), and [^35S]GTPγS binding was determined by liquid scintillation spectrometry.

Data set [2] deals with T1, hFFA3. In words: cell-based. As to conditions: for Emax: HEK293, read-out: cAMP Emax; for cAMP pEC50: hFFA3, compound alone, mean of ≥3 independent experiments ± standard error. Here is the method:
as §1
HEK293 Flp-In T-Rex cells stably transfected with FFA3-eYFP receptors were incubated overnight with doxycycline to induce expression, then harvested, and cryopreserved. On the day of each experiment, cells were thawed and resuspended in stimulation buffer. Assays were carried out using a 384-well plate format with 3000 cells/well using the CisBio cAMP GS dynamic kit as per manufacturer’s protocol. Compounds were tested for the ability to inhibit 0.3 μM forskolin-induced cAMP production after co-incubation for 1 h. Reactions were measured using a PHERAstar FS plate reader (BMGLabtech, Aylesbury, UK).

Data set [3] can be described thus: Kinetic aqueous solubility in PBS pH 7.4. The format is physicochemical. To be noted: for solubility: pH 7.4, read-out: Aq. solub. As to the method:
(§2) Solubility and log D7.4 measurements were performed in accordance to the previously published procedures.[35]

Another data set can be described thus: log D7.4 measurement. The format is physicochemical. As to conditions: pH 7.4; read-out: logD7.4. Here is the method:
as §2

Data set [4] in a line: Stability toward mouse liver microsomes. To be noted: remaining after 40 min incubation with MLMs. As to the method: The study was performed by Bienta (www.bienta.net). Mouse hepatic microsomes were isolated from pooled and perfused livers of male BALB/c mice (n = 50). Isolation was performed according to the standard protocol.[36]
Microsomal incubations were carried out in 96-well plates in 5 aliquots of 40 μL each (one for each time point). Liver microsomal incubation medium comprised PBS (100 mM, pH 7.4), MgCl2 (3.3 mM), NADPH (3 mM), glucose-6-phosphate (5.3 mM), and glucose-6-phosphate dehydrogenase (0.67 units/mL) with 0.42 mg of liver microsomal protein per ml. In the control reactions, the NADPH-cofactor system was substituted with PBS. […] Each reaction was performed in duplicates. Five time points over 40 min were analyzed. The reactions were stopped by adding 12 volumes of 90% acetonitrile–water to incubation aliquots, followed by protein sedimentation by centrifuging at 5500 rpm for 3 min. […]. Supernatants were analyzed using HPLC-MS/MS on an API 3000 PE instrument.
Background: Liver microsomes are vesicles of endoplasmic reticulum, rich in cytochrome P450 enzymes.

For `CC1=C(C(=O)Nc2ccccc2Cl)C(CC(C)C)C2=C(CCCC2=O)N1` (centres unmarked) [Compound 20, N-(2-Chlorophenyl)-4-isobutyl-2-methyl-5-oxo-1,4,5,6,7,8-hexahydroquinoline-3-carboxamide], at hFFA3 [1], the “GTPγS pEC50” value was 5.41 ± 0.13 and the Emax is 105%. Also, at hFFA3 [2], the maximum response (Emax) is 94% and the “cAMP pEC50” value came to 6.15 ± 0.06.

Regarding `CC1=C(C(=O)Nc2c(F)cccc2F)C(CC(C)C)C2=C(CCCC2=O)N1` (centres unmarked) [Compound 21, N-(2,6-Difluorophenyl)-4-isobutyl-2-methyl-5-oxo-1,4,5,6,7,8-hexahydroquinoline-3-carboxamide], at hFFA3 [1], the “GTPγS pEC50” value amounted to 4.67 ± 0.22 and the maximum response (Emax) was 89%. Besides, at hFFA3 [2], the Emax was 104% and the “cAMP pEC50” value is 4.98 ± 0.08.

Regarding `Cc1ccccc1NC(=O)c1c(C)nc2c(c1-c1ccco1)C(=O)CCC2` [Compound 24, 4-(Furan-2-yl)-2-methyl-5-oxo-N-(o-tolyl)-5,6,7,8-tetrahydroquinoline-3-carboxamide], the “PAM pEC50 (GTPγS assay)” value at hFFA3 [1] (GTPγS assay, with propionate) is reported as “nr^c,d”. Moreover, at hFFA3 [2], the “cAMP pEC50” value is “inactive and nr^c”.

Take `CCCC1C(C(=O)Nc2ccccc2C)=C(C)NC2=C1C(=O)CCC2` (centres unmarked) [Compound 35, 2-Methyl-5-oxo-4-propyl-N-(o-tolyl)-1,4,5,6,7,8-hexahydroquinoline-3-carboxamide]: on hFFA3 [2], the Emax is 101% and the “cAMP pEC50” value amounted to 5.92 ± 0.01. Moreover, the “PAM pEC50” value at hFFA3 [2] (cAMP assay in the presence of 1 μM propionate) was 6.16 ± 0.10. Also, the solubility in data set [3] (phosphate buffered saline) stood at 199 µM (≈ 67.4 µg/mL). In “log D7.4 measurement”, the logD amounted to 2.64. The “MLM (%) remaining” value in data set [4] was determined as 23%.

In the case of `CC1=C(C(=O)Nc2cc(Cl)ccc2Cl)C(c2nccs2)C2=C(CCCC2=O)N1` (centres unmarked) [Compound 47, N-(2,5-Dichlorophenyl)-2-methyl-5-oxo-4-(thiazol-2-yl)-1,4,5,6,7,8-hexahydroquinoline-3-carboxamide], the solubility in data set [3] amounted to 1 µM (≈ 0.434 µg/mL); in data set [3] (phosphate buffered saline), 2 µM (≈ 0.869 µg/mL). For the same compound, the logD at 24 h in the data set “log D7.4 measurement” was 3.39. Moreover, the “MLM (%) remaining” value in data set [4] amounted to 2%.

Consider `CC1=C(C(=O)Nc2cc(Cl)ccc2Cl)C(c2cncs2)C2=C(CCCC2=O)N1` (centres unmarked) [Compound 48, N-(2,5-Dichlorophenyl)-2-methyl-5-oxo-4-(thiazol-5-yl)-1,4,5,6,7,8-hexahydroquinoline-3-carboxamide], for which, on hFFA3 [2], the Emax was 97% and the “cAMP pEC50” value is given as 5.75 ± 0.03. Further, in data set [3] (phosphate buffered saline), the solubility is 1 µM (≈ 0.434 µg/mL). Moreover, in the data set “log D7.4 measurement”, the logD at 24 h was determined as 3.23.

As for `CC1=C(C(=O)Nc2cc(Cl)ccc2Cl)C(c2cscn2)C2=C(CCCC2=O)N1` (centres unmarked) [Compound 49, N-(2,5-Dichlorophenyl)-2-methyl-5-oxo-4-(thiazol-4-yl)-1,4,5,6,7,8-hexahydroquinoline-3-carboxamide], on hFFA3 [2], the Emax was 95% and the “cAMP pEC50” value was found to be 5.71 ± 0.08. For the same compound, in data set [3] (phosphate buffered saline), the solubility was under 1 µM. Further, the logD at 24 h in the data set “log D7.4 measurement” was 3.28.

For `CC1=C(C(=O)Nc2cc(Cl)ccc2Cl)C(c2cocn2)C2=C(CCCC2=O)N1` (centres unmarked) [Compound 50, N-(2,5-Dichlorophenyl)-2-methyl-4-(oxazol-4-yl)-5-oxo-1,4,5,6,7,8-hexahydroquinoline-3-carboxamide], at hFFA3 [2], the Emax is 97% and the “cAMP pEC50” value was found to be 5.78 ± 0.03. The “increase of solubility relative to 16” value in data set [3] (kinetic solubility) is over 10 fold. Also, the solubility in data set [3] (phosphate buffered saline) is 62 µM (≈ 25.9 µg/mL). In the data set “log D7.4 measurement”, the logD at 24 h came out at 2.84.

For `CC1=C(C(=O)Nc2cc(Cl)ccc2Cl)C(c2ncco2)C2=C(CCCC2=O)N1` (centres unmarked) [Compound 51, N-(2,5-Dichlorophenyl)-2-methyl-4-(oxazol-2-yl)-5-oxo-1,4,5,6,7,8-hexahydroquinoline-3-carboxamide], on hFFA3 [2], the maximal effect (Emax) is 95% and the “cAMP pEC50” value worked out at 6.72 ± 0.05. For the same compound, the solubility in data set [3] (phosphate buffered saline) came to 1 µM (≈ 0.418 µg/mL). The logD at 24 h in “log D7.4 measurement” is 2.59. The “MLM (%) remaining” value in data set [4] is 12%.

As to `CCCC1C(C(=O)Nc2ccccc2Cl)=C(C)NC2=C1C(=O)CCC2` (centres unmarked) [Compound 58, N-(2-Chlorophenyl)-2-methyl-5-oxo-4-propyl-1,4,5,6,7,8-hexahydroquinoline-3-carboxamide], on hFFA3 [2], the maximal effect (Emax) is 105% and the “cAMP pEC50” value was determined as 6.06 ± 0.05. For the same compound, the “increase of solubility compared to 57” value in data set [3] (kinetic solubility) is reported as 4–5 fold. In addition, the solubility in data set [3] (phosphate buffered saline) was 169 µM (≈ 60.6 µg/mL). Also, the logD at 24 h in the data set “log D7.4 measurement” came out at 3.22.

On to `CCCC1C(C(=O)Nc2cccc(Cl)c2)=C(C)NC2=C1C(=O)CCC2` (centres unmarked) [Compound 59, N-(3-Chlorophenyl)-2-methyl-5-oxo-4-propyl-1,4,5,6,7,8-hexahydroquinoline-3-carboxamide], for which, on hFFA3 [2], the maximal response (Emax) is 105% and the “cAMP pEC50” value was 5.97 ± 0.05. Besides, the “increase of solubility compared to 57” value in data set [3] (kinetic solubility) is 4–5 fold. Moreover, the solubility in data set [3] (phosphate buffered saline) stood at 137 µM (≈ 49.2 µg/mL). In addition, in the data set “log D7.4 measurement”, the logD at 24 h was found to be 3.77.

With `CCCC1C(C(=O)Nc2cc(C)ccc2Cl)=C(C)NC2=C1C(=O)CCC2` (centres unmarked) [Compound 60, N-(2-Chloro-5-methylphenyl)-2-methyl-5-oxo-4-propyl-1,4,5,6,7,8-hexahydroquinoline-3-carboxamide], at hFFA3 [2], the Emax was 103% and the “cAMP pEC50” value came to 6.19 ± 0.10. For the same compound, the solubility in data set [3] (phosphate buffered saline) came to 145 µM (≈ 54.1 µg/mL). For the same compound, in the data set “log D7.4 measurement”, the logD at 24 h is 3.57.

`CCCC1C(C(=O)Nc2cc(OC)ccc2Cl)=C(C)NC2=C1C(=O)CCC2` (centres unmarked) [Compound 61, N-(2-Chloro-5-methoxyphenyl)-2-methyl-5-oxo-4-propyl-1,4,5,6,7,8-hexahydroquinoline-3-carboxamide]: at hFFA3 [2], the maximal response (Emax) is 96% and the “cAMP pEC50” value is recorded as 5.96 ± 0.08. Further, the solubility in data set [3] (phosphate buffered saline) was 157 µM (≈ 61.1 µg/mL). For the same compound, the logD at 24 h in “log D7.4 measurement” was 3.07.

In the case of `CC1=C(C(=O)Nc2cc(Cl)ccc2Cl)C(C2CC2)C2=C(CCCC2=O)N1` (centres unmarked) [Compound 62, 4-Cyclopropyl-N-(2,5-dichlorophenyl)-2-methyl-5-oxo-1,4,5,6,7,8-hexahydroquinoline-3-carboxamide], the solubility in data set [3] (phosphate buffered saline) is 5 µM (≈ 1.96 µg/mL). Besides, the logD at 24 h in “log D7.4 measurement” came to 3.73. The “MLM (%) remaining” value in data set [4] was 1−2% and 1%.

As a reminder, the Emax is the greatest response seen or fitted, relative to the assay's reference.
